Experimental data from US9034825B2, “Treatment of myocardial injury with humanin analogs” (Albert Einstein College of Medicine of Yeshiva University, priority 2007, dated 2015).
“Also recorded” adds a separate entry of the source.

Tested on: Sprague-Dawley rats
Experiment: ICV infusion of IGF-1, IGFBP-3 or NLS mutant with basal and hyperinsulinemic clamp
Assay type: in vivo, rat
Source text: Young (3 mo old, n=6 in each group), male Sprague-Dawley rats (Charles River Laboratories, Wilmington, Mass.) were used for this study. Rats were housed in individual cages and were subjected to a standard light (6:00 AM to 6:00 PM)—dark (6:00 PM to 6:00 AM) cycle. All rats were fed ad libitum using regular rat chow that consisted of 64% carbohydrate, 30% protein, and 6% fat with a physiological fuel value of 3.3-kcal/g chow. In the rats that received ICV infusions, 2 to 4 weeks before the in vivo study, the rats were anesthetized by inhalation of isoflurane and a cannula was placed ICV in the third ventricle for infusions of IGF-1, IGFBP-3 or IGFBP-3 mutant or artificial cerebrospinal fluid (aCSF), as previously described (Muzumdar et al., 2003) (FIG. 1). Briefly, a 26-gauge stainless steel guide cannula (Plastics One, Roanoke, Va.) was chronically implanted into the third ventricles using the following coordinates from bregma: anterior-posterior; +0.2 mm dorsal-ventral; −9.0 mm medial-lateral; 0.0 directly on the mid-sagittal suture, followed by a 28-gauge dummy cannula, inserted to prevent clogging of the guide cannula. The implant was secured to the skull with Caulk Grip dental cement, and the skin was closed over the implant using wound clips. The recovery of rats from the surgical stress was monitored with daily weight, food intake, and movement.
Upon recovery of body weight, usually a week, indwelling catheters were placed in the right internal jugular vein and in the left carotid artery (Muzumdar et al., 2003). The venous catheter was extended to the level of the right atrium, and the arterial catheter was advanced to the level of the aortic arch. Recovery was continued until body weight was within 3% of the pre-operative weight (˜4-6 days). In the rats that received peripheral IGFBP-3, only the vascular catheters were placed.
Studies were performed in unrestrained rats using the insulin clamp technique, in combination with high performance liquid chromatography-purified [3-^3H]glucose and [U-^14C]lactate infusions, as described previously (Liu et al., 1998). Food was removed for ˜5 h before the in vivo protocol. All studies lasted 360 min and included a 120-min equilibration period, a 120-min basal period for assessment of the basal glucose turnover, and a 120-min hyperinsulinemic clamp period. All rats received ICV infusions (bolus followed by continuous ICV infusions of IGF-1, IGFBP-3, IGFBP-3 mutant or aCSF, depending on the group) over the entire 6 hours of the study. At the beginning of the basal period and 120 min before starting the glucose/insulin infusions, a primed-continuous infusion of high performance liquid chromatography-purified [3-^3H]glucose (NEN Life Science Products, Boston, Mass.; 20 μCi of bolus, 0.2 μCi/min) was initiated and maintained throughout the remaining 4 h of the study. In the final 2 hours of the study, the rats were subjected to hyperinsulinemic clamp. The protocol followed during the insulin clamp study was similar to that previously described (Liu et al., 1998). Briefly, a primed-continuous infusion of regular insulin (3 milliunits/kg·min) was administered, and a variable infusion of a 25% glucose solution was started and periodically adjusted to clamp the plasma glucose concentration at 7-8 mM. To prevent endogenous insulin secretion and in order to control for possible effects of ICV infusions on the endocrine pancreas, somatostatin (1.5 μg/kg·min) was also infused in all the groups. [U-^14C]Lactate (5 μCi of bolus/0.25 μCi/min) was infused during the last 10 min of the study.
A bolus of hIGF-1 (0.3 mcg, a gift from Tercica, South San Francisco) was followed by a continuous infusion over 6 hours (total dose of 1 mcg, 0.06 μg/kg/hr).
A bolus of non glycosylated hIGFBP-3 (1.25 μg, generously provided by Celtrix, Mountain View Calif.) was followed by a continuous infusion over 6 hours (total dose of 5.25 mcg, 0.26 μg/kg/hr). […]

[1] = ICV IGFBP-3, insulin clamp 3 mU/kg/min
[2] = ICV IGFBP-3 or NLS mutant over 6 h, basal period
[3] = ICV IGFBP-3 or NLS mutant over 6 h, hyperinsulinemic clamp
[4] = ICV infusion, hyperinsulinemic clamp

Substance: IGFBP-3: non glycosylated hIGFBP-3 (IGF binding protein-3), provided by Celtrix
- decrease in peripheral glucose uptake [1]: ~30%
- increase in hepatic glucose production compared to controls [1]: 45%
- Glycogen synthesis, Basal [2]: 4.62 ± 0.69
- Glycolysis, Basal [2]: 9.33 ± 1.27 mg/kg/min
- HGP, Basal [2]: 13.95 ± 0.99 mg/kg/min
- Glycogen synthesis, Clamp [3]: 4.46 ± 0.68
- Glycolysis, Clamp [3]: 9.95 ± 1.05 mg/kg/min
- HGP, Clamp [3]: 7.08 ± 0.59 mg/kg/min
- Rd, Clamp [3]: 14.01 ± 0.82 mg/kg/min
- GIR, Clamp (ICV IGFBP-3 or NLS mutant over 6 h, hyperinsulinemic clamp 3 mU/kg/min): 6.95 ± 1.11 mg/kg/min
- FFA (ICV IGFBP-3 or NLS mutant over 6 h, hyperinsulinemic clamp, last 60 min): 0.72 ± 0.06 mEq/l
- h-IGFBP-3 (ICV IGFBP-3 or NLS mutant over 6 h, peripheral plasma): 0 ng/mL
- gluconeogenesis [4]: 0.37 ± 0.1 mg/kg/min
- glycogenolysis / hepatic glucose fluxes compared to controls [4]: significant increase
- insulin induced suppression of FFA compared to controls [4]: significantly reduced
- whole body glucose disposal / peripheral glucose uptake (Rd) compared to controls (ICV infusion, hyperinsulinemic clamp, final 60 min): significantly decreased
- infused human peptide in the rat periphery (after ICV infusion): No hIGFBP-3 was detected; also recorded: No human IGF-1, hIGFBP-3 or NLS-IGFBP-3 was identified
